How the values were obtained:
human B1R = target: T1, human B1R (Homo sapiens, UniProt P46663); assay: FLIPR Ca2+ functional study on bradykinin receptor 1 (hB1R CHO K1 cells); format: cell-based; conditions: % inhibition human B1R at 10 μM; for inhibition at 10 µM: read-out: % inh. (hum. B1R) 10 μM
T1 construct: expressed in transfected cells; host or cells: CHO K1 cells
T1 sequence (P46663 1-353): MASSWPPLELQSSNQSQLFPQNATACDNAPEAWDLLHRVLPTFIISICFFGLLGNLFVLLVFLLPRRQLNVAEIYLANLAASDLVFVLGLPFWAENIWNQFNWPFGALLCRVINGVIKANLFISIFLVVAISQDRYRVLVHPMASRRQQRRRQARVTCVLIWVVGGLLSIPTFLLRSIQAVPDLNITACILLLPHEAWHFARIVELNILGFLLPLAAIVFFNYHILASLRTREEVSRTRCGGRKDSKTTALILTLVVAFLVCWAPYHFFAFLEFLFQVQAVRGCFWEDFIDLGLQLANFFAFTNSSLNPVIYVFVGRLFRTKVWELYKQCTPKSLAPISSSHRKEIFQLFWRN
Summary of the method: (§1)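 Antagonism was calculated as % of maximal inhibition of the Ca2+ rise triggered by agonist at EC80 (Lys-Des-Arg9-bradykinin for hB1R, Des-Arg9-bradykinin for rB1R), added 10-20 min after test compound (10 μM or serial dilutions for IC50) to Fluo-4-loaded transfected CHO K1 cells on FLIPR. Duplicates or triplicates, ≥2 independent runs.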

rat B1R = target: T2, rat B1R (Rattus norvegicus, UniProt P97583); assay: FLIPR Ca2+ functional study on bradykinin receptor 1 (rB1R CHO K1 cells); format: cell-based; conditions: for inhibition at 10 µM: CHO-K1, % inhibition rat B1R at 10 μM, read-out: % inh. (rat B1R) 10 μM; for % inh. (rat B1R) 10 μM: % inhibition rat B1R at 10 μM
T2 construct: expressed in transfected cells; host or cells: CHO K1 cells
T2 sequence (P97583 1-337): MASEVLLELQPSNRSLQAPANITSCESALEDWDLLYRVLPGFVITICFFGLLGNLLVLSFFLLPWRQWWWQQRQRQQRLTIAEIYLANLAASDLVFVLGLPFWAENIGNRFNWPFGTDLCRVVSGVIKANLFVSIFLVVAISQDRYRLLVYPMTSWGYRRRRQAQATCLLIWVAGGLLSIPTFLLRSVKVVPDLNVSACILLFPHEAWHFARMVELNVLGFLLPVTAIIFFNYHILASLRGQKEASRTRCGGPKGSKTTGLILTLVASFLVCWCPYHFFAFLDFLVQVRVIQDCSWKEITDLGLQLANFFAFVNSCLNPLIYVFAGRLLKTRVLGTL
Summary of the method: as §1

SMILES | inhibition at 10 µM (human B1R) [%] | inhibition at 10 µM (rat B1R) [%] | % inh. (hum. B1R) 10 μM (human B1R) [%] | % inh. (rat B1R) 10 μM (rat B1R) [%]
COc1cc(C)c(S(=O)(=O)N2CCCCC2COc2nccc(N3CCN(CC4CCN(C)CC4)CC3)n2)c(C)c1 (stereo not drawn) [G_CC-014, 2-[[1-(4-methoxy-2,6-dimethylphenyl)sulfonyl-2-piperidinyl]methoxy]-4-[4-[(1-methyl-4-piperidinyl)methyl]-1-piperazinyl]pyrimidine] | 94 | 105 | – | –
COc1cc(C)c(S(=O)(=O)N2CCC[C@H]2COc2nccc(N3CCC(CCN4CCCC4)CC3)n2)c(C)c1 [G_CC-016, 2-[[(2S)-1-(4-methoxy-2,6-dimethylphenyl)sulfonyl-2-pyrrolidinyl]methoxy]-4-[4-(2-1-pyrrolidinylethyl)-1-piperidinyl]pyrimidine] | 96 | 100 | – | –
COc1cc(C)c(S(=O)(=O)N2CCC[C@H]2COc2nccc(N3CCN(c4ccncc4)CC3)n2)c(C)c1 [G_CC-019, 2-[[(2S)-1-(4-methoxy-2,6-dimethylphenyl)sulfonyl-2-pyrrolidinyl]methoxy]-4-[4-(4-pyridyl)-1-piperazinyl]pyrimidine] | 100 | 104 | – | –
COc1cc(C)c(S(=O)(=O)N2CCC[C@H]2COc2nccc(N3CCC(O)(c4cccs4)CC3)n2)c(C)c1 [G_CC-021, 1-[2-[[(2S)-1-(4-methoxy-2,6-dimethylphenyl)sulfonyl-2-pyrrolidinyl]methoxy]-4-pyrimidinyl]-4-(2-thienyl)-4-piperidinol] | 36 | 105 | – | –
COc1cc(C)c(S(=O)(=O)N2CCCCC2COc2nccc(N3CCC(CCN4CCCCC4)CC3)n2)c(C)c1 (stereo not drawn) [G_CC-026] | – | – | 97 | 100
COc1cc(C)c(S(=O)(=O)N2CCC[C@H]2COc2nccc(N3CCC4(CCN(Cc5ccccc5)C4)C3)n2)c(C)c1 (stereo partly drawn) [G_CC-032, 3-benzyl-7-[2-[[(2S)-1-(4-methoxy-2,6-dimethylphenyl)sulfonyl-2-pyrrolidinyl]methoxy]-4-pyrimidinyl]-3,7-diazaspiro[4.4]nonane] | 86 | 105 | – | –
COc1cc(C)c(S(=O)(=O)N2CCC[C@H]2COc2nccc(N3CCN(C4CCN(C)CC4)CC3)n2)c(C)c1 [G_CC-036, 2-[[(2S)-1-(4-methoxy-2,6-dimethylphenyl)sulfonyl-2-pyrrolidinyl]methoxy]-4-[4-(1-methyl-4-piperidinyl)-1-piperazinyl]pyrimidine] | 75 | 102 | – | –
COc1cc(C)c(S(=O)(=O)N2CCCC(Oc3nccc(N4CCC5(CCN(c6ccncc6)CC5)CC4)n3)C2)c(C)c1 (stereo not drawn) [G_CC-041, 9-[2-[[1-(4-methoxy-2,6-dimethylphenyl)sulfonyl-3-piperidinyl]oxy]-4-pyrimidinyl]-3-(4-pyridyl)-3,9-diazaspiro[5.5]undecane] | 96 | 101 | – | –
COc1cc(C)c(S(=O)(=O)N(C)CCOc2nccc(N3CCC4(CCN(c5ccncc5)CC4)CC3)n2)c(C)c1 [G_CC-047, 4-methoxy-N,2,6-trimethyl-N-[2-[[4-[3-(4-pyridyl)-3,9-diazaspiro[5.5]undecan-9-yl]-2-pyrimidinyl]oxy]ethyl]benzenesulfonamide] | 100 | 99 | – | –
COc1cc(C)c(S(=O)(=O)N2CCC[C@H]2COc2nccc(N3CCC(Oc4ccncc4)CC3)n2)c(C)c1 [G_CC-052, 2-[[(2S)-1-(4-methoxy-2,6-dimethylphenyl)sulfonyl-2-pyrrlidinyl]methoxy]-4-[4-(4-pyridyloxy)-1-piperidinyl]pyrimidine] | – | – | 74 | 99
COc1cc(C)c(S(=O)(=O)N(C)C(COc2nccc(N3CCC4(CCN(Cc5ccc(F)cc5)C4=O)CC3)n2)c2ccccc2)c(C)c1 (stereo not drawn) [G_CC-060, N-[2-[[4-[3-[(4-fluorophenyl)methyl]-4-oxo-3,8-diazaspiro[4.5]decan-8-yl]-2-pyrimidinyl]oxy]-1-phenylethyl]-4-methoxy-N,2,6-trimethylbenzenesulfonamide] | 17 | 88 | – | –
COc1cc(C)c(S(=O)(=O)N(C)C(COc2nccc(N3CCC(Oc4ccncc4)CC3)n2)c2ccccc2)c(C)c1 (stereo not drawn) [G_CC-063, 4-methoxy-N,2,6-trimethyl-N-[1-phenyl-2-[[4-[4-(4-pyridyloxy)-1-piperidinyl]-2-pyrimidinyl]oxy]ethyl]benzenesulfonamide] | 28 | 101 | – | –
COc1cc(C)c(S(=O)(=O)N(C)CCOc2ccnc(N3CCC4(CCN(c5ccncc5)CC4)CC3)n2)c(C)c1 [H_CC-029, 4-methoxy-N,2,6-trimethyl-N-[2-[[2-[3-(4-pyridyl)-3,9-diazaspiro[5.5]undecan-9-yl]-4-pyrimidinyl]oxy]ethyl]benzenesulfonamide] | 92 | 101 | – | –
COc1cc(C)c(S(=O)(=O)N2CCCCC2COc2ccnc(N3CCC4(CCN(c5ccncc5)CC4)CC3)n2)c(C)c1 (stereo not drawn) [H_CC-032] | – | – | 77 | 101
COc1cc(C)c(S(=O)(=O)N(C)C(COc2ccnc(N3CCC4(CCN(c5ccncc5)CC4)CC3)n2)c2ccccc2)c(C)c1 (stereo not drawn) [H_CC-037, 4-methoxy-N,2,6-trimethyl-N-[1-phenyl-2-[[2-[3-(4-pyridyl)-3,9-diazaspiro[5.5]undecan-9-yl]-4-pyrimidinyl]oxy]ethyl]benzenesulfonamide] | 54 | 102 | – | –

Other lines, results leading:

inhibition at 10 µM (human B1R) [%] | inhibition at 10 µM (rat B1R) [%] | % inh. (hum. B1R) 10 μM (human B1R) [%] | % inh. (rat B1R) 10 μM (rat B1R) [%] | SMILES
-1 | 99 | – | – | COc1cc(C)c(S(=O)(=O)N2CCC[C@H]2COc2nccc(N3CCC4(CC3)C(=O)NCN4c3ccccc3)n2)c(C)c1 [G_CC-035, 8-[2-[[(2S)-1-(4-methoxy-2,6-dimethylphenyl)sulfonyl-2-pyrrolidinyl]methoxy]-4-pyrimidinyl]-4-phenyl-2,4,8-triazaspiro[4.5]decan-1-one]
58 | 99 | – | – | COc1cc(C)c(S(=O)(=O)N2CCCCC2COc2nccc(N3CCC4(CCN(Cc5ccc(F)cc5)C4=O)CC3)n2)c(C)c1 (stereo not drawn) [G_CC-039, 3-[(4-fluorophenyl)methyl]-8-[2-[[1-(4-methoxy-2,6-dimethylphenyl)sulfonyl-2-piperidinyl]methoxy]-4-pyrimidinyl]-3,8-diazaspiro[4.5]decan-4-one]
57 | 99 | – | – | COc1cc(C)c(S(=O)(=O)N2CCCCC2COc2nccc(N3CCC4(CCN(Cc5ccccc5)C4=O)CC3)n2)c(C)c1 (stereo not drawn) [G_CC-040, 3-benzyl-8-[2-[[1-(4-methoxy-2,6-dimethylphenyl)sulfonyl-2-piperidinyl]methoxy]-4-pyrimidinyl]-3,8-diazaspiro[4.5]decan-4-one]
28 | 96 | – | – | COc1cc(C)c(S(=O)(=O)N2CCC[C@H]2COc2nccc(N3CCC4(CC3)CCN(c3ccc(F)cc3)C4=O)n2)c(C)c1 [G_CC-048, 3-(4-fluorophenyl)-8-[2-[[(2S)-1-(4-methoxy-2,6-dimethylphenyl)sulfonyl-2-pyrrolidinyl]methoxy]-4-pyrimidinyl]-3,8-diazaspiro[4.5]decan-4-one]
38 | 98 | – | – | COc1cc(C)c(S(=O)(=O)N2CCC[C@H]2COc2nccc(N3CCC4(CCN(Cc5ccc(F)cc5)C4=O)CC3)n2)c(C)c1 [G_CC-051, 3-[(4-fluorophenyl)methyl]-8-[2-[[(2S)-1-(4-methoxy-2,6-dimethylphenyl)sulfonyl-2-pyrrolidinyl]methoxy]-4-pyrimidinyl]-3,8-diazaspiro[4.5]decan-4-one]
97 | 101 | – | – | COc1cc(C)c(S(=O)(=O)N2CCC[C@H]2COc2nccc(N3CCC4(CCN(c5ccncc5)CC4)CC3)n2)c(C)c1 [G_CC-055, 9-[2-[[(2S)-1-(4-methoxy-2,6-dimethylphenyl)sulfonyl-2-pyrrolidinyl)methoxy]-4-pyrimidinyl]-3-(4-pyridyl)-3,9-diazaspiro[5.5]undecane]

— US8269000B2, “Substituted pyrimidine and triazine compounds” (Gruenenthal GmbH, priority 2008, dated 2012)
